This assay has as its target T1, human Farnesoid X Receptor (FXR) ligand binding domain (GST-FXR LBD) (Homo sapiens, UniProt Q96RI1).
T1 construct: purchased Invitrogen
T1 sequence (Q96RI1 193-472 isoform Q96RI1-2): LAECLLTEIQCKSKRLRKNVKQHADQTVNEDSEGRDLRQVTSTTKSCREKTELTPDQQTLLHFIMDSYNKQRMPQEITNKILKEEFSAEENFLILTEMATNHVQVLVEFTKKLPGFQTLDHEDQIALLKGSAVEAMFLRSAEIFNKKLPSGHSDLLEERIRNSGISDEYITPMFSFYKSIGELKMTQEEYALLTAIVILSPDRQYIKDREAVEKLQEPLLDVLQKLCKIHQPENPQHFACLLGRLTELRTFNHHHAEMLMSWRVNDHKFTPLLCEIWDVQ
Briefly: Human GST-FXR LBD co-activator interaction assay (FXR HTRF assay). Format: biochemical. The following applies: ligand-dependent interaction of GST-FXR LBD with biotin-labeled SRC-1 peptide, response relative to GW4064, read-out: FXR coactivator interaction assay (HTRF). The text has this: Human GST-FXR LBD Co-Activator Interaction Assay
The FXR HTRF assay is a biochemical assay measuring the interaction between FXR and a coactivator protein (SRC1). The ligand-induced interaction with a coactivator protein is a critical step in transcriptional activation by FXR. Thus, this is an assay designed to measure FXR agonist activity of the test compounds.
Recombinant human Farnesoid X Receptor (FXR) ligand binding domain (amino acids 193-472) fused to glutathione S-transferase (GST) purified protein (GST-FXR LBD) was purchased (Invitrogen). The ligand-dependent interaction between GST-FXR LBD and a peptide derived from Steroid Receptor Coactivator-1 (SRC-1) was monitored by Fluorescence Resonance Energy Transfer (FRET). […] Test compounds (in DMSO solution) and detection reagents (anti-GST-Cryptate labeled antibody and Streptavidin-XL665 conjugate; CisBio) were added in assay buffer containing 50 mM KF. Plates are incubated at room temperature in the dark for 2.5 hrs before reading on an Envision (PerkinElmer) at 665 nm and 590 nm. The HTRF assay results were calculated from the 665 nm/590 nm ratio (ratio=(A665 nm/A590 nm)×10^4) and expressed in Delta F %=(Ratiosample−Rationegative)/Rationegative×100.
A negative control (without Streptavidin-XL665) was run with each assay and represented the background fluorescence. A reference FXR agonist, (E)-3-(2-chloro-4-((3-(2,6-dichlorophenyl)-5-isopropylisoxazol-4-yl)methoxy)styryl)benzoic acid (Compound GW4064), was included in each experiment as positive control. The efficacy of each test compound was compared to that of GW4064. At each concentration, the relative activity of the test compound was expressed as Response %=(Rsample−RDMSO)/(Rpositive−RDMSO), where Rsample is the HTRF response (expressed in Delta F %) for the test compound, Rpositive is the maximal response for GW4064 at saturating concentrations, and RDMSO is the response for DMSO control. The EC50 values were calculated using GraphPad Prism (GraphPad Software) using non-linear regression curve fit (log(agonist) vs. response—variable slope (four parameters)).

Regarding `CC(C)NC(=O)CN(Cc1cccc(F)c1F)C(=O)c1nn(C)c2c1COc1ccc(Cl)cc1-2` [Compound 42, 2-(1-{8-chloro-1-methyl-1H,4H-chromeno[4,3-c]pyrazol-3-yl}-N-[(2,3-difluorophenyl)methyl]formamido)-N-(propan-2-yl)acetamide], the EC50 came to 631 nM.

Regarding `Cn1nc(C(=O)N(Cc2ccccc2)Cc2cccc(F)c2)c2c1-c1cc(Cl)ccc1OC2` [Compound 57, N-benzyl-8-chloro-N-[(3-fluorophenyl)methyl]-1-methyl-1H,4H-chromeno[4,3-c]pyrazole-3-carboxamide], the EC50 is 509 nM. As for `CC(C)NC(=O)CN(Cc1ccccc1F)C(=O)c1nn(C)c2c1COc1ccc(Cl)cc1-2` [Compound 29, 2-(1-{8-chloro-1-methyl-1H,4H-chromeno[4,3-c]pyrazol-3-yl}-N-[(2-fluorophenyl)methyl]formamido)-N-(propan-2-yl)acetamide], the figure is 197 nM; as for `CNC(=O)c1ccc(NC(=O)CN(Cc2ccccc2F)C(=O)c2nn(C)c3c2COc2ccc(Cl)cc2-3)cc1` [Compound 37, 4-[2-(1-{8-chloro-1-methyl-1H,4H-chromeno[4,3-c]pyrazol-3-yl}-N-[(2-fluorophenyl)methyl]formamido)acetamido]-N-methylbenzamide], 192 nM; as for `Cn1nc(C(=O)N(CC(=O)NC2CC2(F)F)Cc2ccccc2F)c2c1-c1cc(Cl)ccc1OC2` (stereo not shown) [Compound 23, 2-(1-{8-chloro-1-methyl-1H,4H-chromeno[4,3-c]pyrazol-3-yl}-N-[(2-fluorophenyl)methyl]formamido)-N-(2,2-difluorocyclopropyl)acetamide], 87 nM. As for `Cn1nc(C(=O)N(CC(=O)NCC2CCOCC2)Cc2ccccc2F)c2c1-c1cc(Cl)ccc1OC2` [Compound 82, 2-(1-{8-chloro-1-methyl-1H,4H-chromeno[4,3-c]pyrazol-3-yl}-N-[(2-fluorophenyl)methyl]formamido)-N-(oxan-4-ylmethyl)acetamide], the figure is 178 nM. As for `CC(C)S(=O)(=O)NCCN(Cc1ccccc1)C(=O)c1nn(C)c2c1COc1ccc(Br)cc1-2` [Compound 64, N-benzyl-8-bromo-1-methyl-N-[2-(propane-2-sulfonamido)ethyl]-1H,4H-chromeno[4,3-c]pyrazole-3-carboxamide], the figure is 695 nM; as for `Cn1nc(C(=O)N(CC(=O)NC2CC2(F)F)Cc2cccc(F)c2)c2c1-c1cc(Cl)ccc1OC2` (stereo not shown) [Compound 10, 2-(1-{8-chloro-1-methyl-1H,4H-chromeno[4,3-c]pyrazol-3-yl}-N-[(3-fluorophenyl)methyl]formamido)-N-(2,2-difluorocyclopropyl)acetamide], 21 nM. For the compound `Cn1nc(C(=O)N(CC(=O)NCC2CCOC2)Cc2ccccc2F)c2c1-c1cc(Cl)ccc1OC2` (stereo not shown) [Compound 7, 2-(1-{8-chloro-1-methyl-1H,4H-chromeno[4,3-c]pyrazol-3-yl}-N-[(2-fluorophenyl)methyl]formamido)-N-(oxolan-3-ylmethyl) acetamide], the EC50 is 18 nM.

Regarding `Cn1nc(C(=O)N(CC(=O)NCC(C)(C)O)Cc2ccccc2F)c2c1-c1cc(Cl)ccc1OC2` [Compound 46, 2-(1-{8-chloro-1-methyl-1H,4H-chromeno[4,3-c]pyrazol-3-yl}-N-[(2-fluorophenyl)methyl]formamido)-N-(2-hydroxy-2-methylpropyl)acetamide], the EC50 was determined as 19 nM. As for `CC(C)C(=O)NCCN(Cc1ccccc1F)C(=O)c1nn(C)c2c1COc1ccc(Cl)cc1-2` [Compound 66, N-[2-(1-{8-chloro-1-methyl-1H,4H-chromeno[4,3-c]pyrazol-3-yl}-N-[(2-fluorophenyl)methyl]formamido)ethyl]-2-methylpropanamide], the figure is 10 nM; as for `Cn1nc(C(=O)N(CC(=O)NCC2CC2)CC2CCOCC2)c2c1-c1cc(Cl)ccc1OC2` [Compound 40, 2-(1-{8-chloro-1-methyl-1H,4H-chromeno[4,3-c]pyrazol-3-yl}-N-(oxan-4-ylmethyl)formamido)-N-(cyclopropylmethyl)acetamide], 608 nM; as for `C[C@@H](C(=O)NCC1CC1)N(Cc1ccccc1F)C(=O)c1nn(C)c2c1COc1ccc(Cl)cc1-2` [Compound 80, (2S)-2-(1-{8-chloro-1-methyl-1H,4H-chromeno[4,3-c]pyrazol-3-yl}-N-[(2-fluorophenyl)methyl]formamido)-N-(cyclopropylmethyl)propanamide], 61 nM. Take `Cn1nc(C(=O)N(CC(=O)NCCF)Cc2ccccc2F)c2c1-c1cc(Cl)ccc1OC2` [Compound 11, 2-(1-{8-chloro-1-methyl-1H,4H-chromeno[4,3-c]pyrazol-3-yl}-N-[(2-fluorophenyl)methyl]formamido)-N-(2-fluoroethyl)acetamide]: the EC50 came to 13 nM. To `Cn1nc(C(=O)N(CC(=O)NC(C)(C)C)Cc2ccccc2F)c2c1-c1cc(Cl)ccc1OC2` [Compound 30, N-tert-butyl-2-(1-{8-chloro-1-methyl-1H,4H-chromeno[4,3-c]pyrazol-3-yl}-N-[(2-fluorophenyl)methyl]formamido)acetamide] belongs 190 nM; to `Cn1nc(C(=O)N(CC(=O)NC2CCS(=O)(=O)C2)Cc2cccc(F)c2)c2c1-c1cc(Cl)ccc1OC2` (stereo not shown) [Compound 36, 8-chloro-N-(2-((1,1-dioxidotetrahydrothiophen-3-yl)amino)-2-oxoethyl)-N-(3-fluorobenzyl)-1-methyl-1,4-dihydrochromeno[4,3-c]pyrazole-3-carboxamide], 99 nM; to `Cn1nc(C(=O)N(CC(=O)NCC2CC2)Cc2cccc(F)c2)c2c1-c1cc(Cl)ccc1OC2` [Compound 1, 8-chloro-N-(2-((cyclopropylmethyl)amino)-2-oxoethyl)-N-(3-fluorobenzyl)-1-methyl-1,4-dihydrochromeno[4,3-c]pyrazole-3-carboxamide], 2 nM. To `CC(C)NC(=O)NCCN(Cc1ccccc1F)C(=O)c1nn(C)c2c1COc1ccc(Cl)cc1-2` [Compound 61, 8-chloro-N-[(2-fluorophenyl)methyl]-1-methyl-N-(2-{[(propan-2-yl)carbamoyl]amino}ethyl)-1H,4H-chromeno[4,3-c]pyrazole-3-carboxamide] belongs 1080 nM; to `Cn1nc(C(=O)N(CC(=O)NCCC(F)(F)F)Cc2cccc(F)c2)c2c1-c1cc(Cl)ccc1OC2` [Compound 2, 2-(1-{8-chloro-1-methyl-1H,4H-chromeno[4,3-c]pyrazol-3-yl}-N-[(3-fluorophenyl)methyl]formamido)-N-(3,3,3-trifluoropropyl)acetamide], 3 nM.

Source of the values: patent US10351576B2, “Fused tricyclic pyrazole derivatives useful for farnesoid X receptors” (NOVARTIS AG, priority 2015, dated 2019).
